The results in this text go back to article PMC7433010, “Exploration of multi‐target effects of 3‐benzoyl‐5‐hydroxychromen‐2‐one in Alzheimer’s disease cell and mouse models” (Aging Cell, 2020).

Each structure is given as a SMILES string.

In one data set the test system is NRF2. In words: Western blot of NRF2 in ∆K280 TauRD‐DsRed SH‐SY5Y cells. Type of data set: cell-based, human. The note with it: 1 µM. On the procedure: (§1) To knock down CREB expression in ∆K280 TauRD-DsRed SH-SY5Y cells, lentiviral short hairpin RNA (shRNA) targeting CREB (TRCN0000226466), NRF2 (TRCN0000007558), and a negative control scrambled (TRC2.Void) were obtained from National RNAi Core Facility, IMB/GRC, Academia Sinica, Taipei, Taiwan. On day 1, cells were plated on 6-well plates (for protein analysis) or 24-well plates (for neurite outgrowth analysis) in the presence of retinoic acid as described. On the second day, the cells were infected with lentivirus (multiplicity of infection: 3) in medium with polybrene (8 µg/mL; Sigma-Aldrich). On day 3, the culture medium was changed and the cells were pretreated with LM-031 (1 µM) for 8 h, followed by induction of ∆K280 TauRD-DsRed expression. On day 9, the cells were collected for NRF2, CREB, pCREB, and cleaved CASP3 protein analysis or analyzed for neurite outgrowth as described.
(§2) Total proteins from ∆K280 TauRD-DsRed SH-SY5Y cells were obtained using a RIPA buffer containing 50 mM Tris-HCl (pH8.0), 150 mM NaCl, 2 mM EDTA (pH8.0), 50 mM NaF, 0.1% SDS, 0.5% sodium deoxycholate, 1% NP40, and a protease inhibitor cocktail (Sigma-Aldrich). After sonication and sitting on ice for 20 min, the lysates were centrifuged at 14,000 × g for 30 min at 4°C. Protein concentrations were determined using a protein assay kit (Bio-Rad, Hercules, CA, USA), with albumin as a standard. Total proteins (20 µg) were electrophoresed on 10% or 12% SDS-polyacrylamide gel and transferred onto polyvinylidene difluoride (PVDF) membranes (Sigma-Aldrich) through reverse electrophoresis. […] Subsequently, immune complexes were detected using a horseradish peroxidase-conjugated goat anti-mouse or goat anti-rabbit IgG antibody (1:5000; GeneTex, Irvive, CA, USA) and a chemiluminescent substrate (Millipore).

Data set [1] deals with ∆K280 TauRD‐DsRed‐expressing SH‐SY5Y cells. Briefly: Neurite outgrowth analysis in ∆K280 TauRD‐DsRed SH‐SY5Y cells. The settings on record: 1 µM. Type of data set: cell-based, human. On the procedure:
On day 1, ∆K280 TauRD-DsRed-expressing SH-SY5Y cells were seeded on a 24-well plate in a density of 3 × 10^4 cells/well, with 10 µM retinoic acid (Sigma-Aldrich) added to induce neuronal differentiation. On the second day, the cells were treated with licochalcone A (1 µM), LM-031 (1 µM), or congo red (10 µM) for 8 h and ∆K280 TauRD-DsRed expression was induced as described. After seven days, the cells were washed with phosphate-buffered saline (PBS) and fixed in 4% paraformaldehyde in PBS for 15 min. After permeabilized with 0.1% Triton X-100 in PBS for 10 min and blocked by 3% BSA in PBS for 20 min, cells were stained with primary neuronal class III β-tubulin (TUBB3) antibody (1:1000; Covance, Princeton, NJ, USA) at 4°C overnight and secondary anti-rabbit Alexa Fluor ®555 antibody (1:1000; Invitrogen) at room temperature for 3 h. After nuclei were stained with DAPI for 30 min, neuronal images were captured using the high-content imaging system as described and analyzed using the Neurite Outgrowth Application Module (Molecular Devices).
as §1

In a further data set the test system is pCREB (S133). In words: Western blot of pCREB (S133) in ∆K280 TauRD‐DsRed SH‐SY5Y cells. Format: cell-based, human. The settings on record: 1 µM; induced untreated 78%, uninduced 100%. How it is done: as §1, with “On day 3, the culture medium was changed and the cells were pretreated with LM-031 (1 µM) for 8 h, followed by induction of ∆K280 TauRD-DsRed expression.” left out
as §2, with “After sonication and sitting on ice for 20 min, the lysates were centrifuged at 14,000 × g for 30 min at 4°C.” left out, “standard.” for “standard. Total proteins (20 µg) were electrophoresed on 10% or 12% SDS-polyacrylamide gel and transferred onto polyvinylidene difluoride (PVDF) membranes (Sigma-Aldrich) through reverse electrophoresis.”

The next data set concerns sarkosyl‐insoluble Tau. Briefly: TEM of sarkosyl‐insoluble Tau from STZ‐treated 3 × Tg‐AD mice. Format: in vivo, mouse. The note with it: STZ/LM‐031 mice. An excerpt: Figure S7. Body weight, blood glucose, open field task, NeuN immunoreactivity, and TEM of sarkosyl-insoluble tau in STZ-treated 3×Tg-AD mice. (a) Body weight and blood glucose of the mice. […] (c) Representative IHC images for NeuN and intensity quantification in the hippocampus of mice. DG, dentate gyrus; CA1 and CA3, Cornu Ammonis areas 1 and 3. (d) TEM of sarkosyl-insoluble tau. p values, STZ vs. – STZ mice or STZ/LM-031 vs. STZ mice. *: p < 0.05, ^##: p < 0.01, ^##^#: p < 0.001. (one-way ANOVA with a post hoc Tukey test)

In the next data set the test system is pERK1/2 (T202/Y204). In words: Western blot of pERK1/2 (T202/Y204) in ∆K280 TauRD‐DsRed SH‐SY5Y cells. The note with it: induced untreated 90%, uninduced 100%. Type of data set: cell-based, human. How it is done: as §2
Figure S4. ΔK280 TauRD-DsRed SH-SY5Y cells. […] On day 9, neurite outgrowth and caspase 3 activity were measured. In addition, expression of HSPB1, NRF2, and CREB pathways were assessed. (b) Relative AKT, pAKT, ERK, and pERK protein levels analyzed through immunoblotting. […]

`O=C(c1ccccc1)c1cc2c(O)cccc2oc1=O` [LM‐031, 3‐benzoyl‐5‐hydroxychromen‐2‐one] showed an NRF2 protein level in the data set on NRF2 (induced untreated 75%, uninduced 100%) of 109%. The NRF2 level came to 98% in the data set with NRF2 (NRF2‐specific shRNA‐infected cells, untreated 74%) and 105% with NRF2 (scrambled shRNA‐infected cells, untreated 70%, uninduced 100%). Moreover, the neurite length in data set [1] (CREB‐specific shRNA‐infected cells, untreated 46 µm) was 51 µm; in data set [1] (NRF2‐specific shRNA‐infected cells, untreated 42 µm), 46 µm; in data set [1] (scrambled shRNA‐infected cells, untreated 48 µm), 53 µm. Further, in the data set on pCREB (S133), the “pCREB (S133) protein level” value was found to be 124%. For the same compound, the “sarkosyl‐insoluble Tau aggregates by TEM” value in the data set on sarkosyl‐insoluble Tau was “reduced Tau aggregates”. In addition, the “pERK1/2 (T202/Y204) expression level” value with pERK1/2 (T202/Y204) came to 117%.
